Test results reported in patent publication US9481871B2, “Nucleic acid encoding a polpeptide having aminotransferase activity, vectors and host cells comprising the nucleic acid” (KANEKA CORPORATION, priority 2010, dated 2016).
Where two headings read alike, the source gives them in different places.

Columns and labels:
TAT [1] = test: Specificity 2 to amino group donor: typical substrates of ω-amino acid transaminase; assay type: biochemical, Arthrobacter sp. KNK04-25; conditions: amino group donor 14 mM, 2-ketoglutaric acid 14 mM; for Relative activity: pH 7.0, 30° C., 60 minutes, (S)-1-phenethylamine = 100; for activity of the polypeptide for amino group donor (in words): pH 7.0
Method: (§1) Each reagent was added to the enzyme solution (100 μL each) so that the final concentrations were as specified in the following composition of the substrate solution. The volume of each reaction solution was adjusted to 400 μl with 0.1 M potassium phosphate buffer (pH 7.0). After 60 minutes of reaction at 30° C., 20 μL of 3N hydrochloric acid was added to stop the reaction. Next, 80 μL of a 0.2 M aqueous sodium carbonate solution and 200 μL of an acetone solution of 3.3 mg/mL Dabsyl chloride were each added to 20 μL of the thus obtained reaction solution, followed by 10 minutes of reaction at 70° C. Acetic acid (20 μL) was added to 50 μL of the reaction solution and then the solution was stirred. The resultant was analyzed by high performance liquid chromatography under the following conditions and thus the quantity of dabsylated glutamic acid was determined. In addition, the activity of an enzyme used in this assay was adjusted so that the amount of glutamic acid generated was 2.8 mM or less.
(§2) [Composition of Substrate Solution]
[High Performance Liquid Chromatography Analysis Conditions] • Column: YMC-Pack Pro C18 RS (YMC) • Eluent: acetonitrile/45 mM acetate buffer (pH 4.1)=35/65 (volume ratio) • Flow rate: 0.9 mL/minute • Detection: 254 nm • Column temperature: 30° C.

TAT [2] = assay type: biochemical, Arthrobacter sp. KNK04-25
TAT [3] = test: Specificity to amino group donor (dabsylated glutamic acid, HPLC); assay type: biochemical, Arthrobacter sp. KNK04-25; conditions: amino group donor 14 mM, 2-ketoglutaric acid 14 mM; for activity of TAT for amino group donor (in words): pH 7.0; for Relative activity: pH 7.0, 30° C., 60 minutes, benzylamine = 100
Method: The substrate specificity of TAT to amino group donors was examined using the cell-free extracts obtained in Example 5.
as §1, with “solution (100 μL, each) so” for “solution (100 μL each) so”, “C., 20 μL, of 3N” for “C., 20 μL of 3N”, “Next, 80 μL, of a” for “Next, 80 μL of a”, “and 200 μL, of an” for “and 200 μL of an”, “to 20 μL, of the” for “to 20 μL of the”, “to 50 μL, of the” for “to 50 μL of the”
as §2
[High Performance Liquid Chromatography Analysis Conditions] • Column: Cosmosil 5C8-MS (NACALAI TESQUE, INC.) • Eluent: distilled water 2000 mL/acetonitrile 500 mL/methanol 500 ml/KH2PO4 6.1 g/H3PO4 2.5 g • Flow rate: 1 mL/minute • Detection: 254 nm • Column temperature: 30° C.

TAT [4] = test: Specificity 3 to amino group donor with 1-benzyl-3-pyrrolidinone as receptor; assay type: biochemical, Arthrobacter sp. KNK04-25; conditions: amino group donor 290 mM, 1-benzyl-3-pyrrolidinone 29 mM; for Relative activity: pH 7.0, 30° C., 90 minutes, L-alanine = 100
Method: With the use of the cell-free extracts obtained in Example 5, the substrate specificity of TAT to an amino group donor was examined. Each reagent was added to enzyme solutions (200 μL each) so that the final concentrations were as specified in the following composition of the substrate solution. The volume of each reaction solution was adjusted to 400 μl with 0.1 M potassium phosphate buffer (pH 7.0). After 90 minutes of reaction at 30° C., 15 μL of 6N hydrochloric acid was added to stop the reaction. The thus obtained reaction solutions were analyzed by high performance liquid chromatography under the following conditions.
as §2
(§3) [High Performance Liquid Chromatography Quantitative Analysis Conditions] <Quantitative Analysis> • Column: Finepak SIL C18-T (JASCO Corporation) • Eluent: distilled water 945 mL/acetonitrile 555 mL/KH2PO4 7.5 g/SDS 2.16 g (adjusted with H3PO4 to pH 3.6) • Flow rate: 1 mL/minute • Detection: 254 nm • Column temperature: 40° C. <Analysis of Optical Purity>
Each reaction solution was treated with an appropriate amount of sodium carbonate so that it became basic, derivatized with dinitrobenzoyl chloride, and then analyzed under the following conditions. • Column: Chiralcel IA (Daicel Corporation) • Eluent: hexane/ethanol/diethylamine/acetonitrile=800/200/1/5 (volume ratio) • Flow rate: 0.8 mL/minute • Detection: 254 nm • Column temperature: 30° C.

[5] = Activity for 1-benzyl-3-pyrrolidinone and optical purity of generated (S)-1-benzyl-3-aminopyrrolidine; assay type: biochemical; conditions: 57 mM 1-benzyl-3-pyrrolidinone, 57 mM (S)-1-phenethylamine, pH 7.0, 30° C., 2 hours, cell-free extract
Method: (Method for Determination of Activity for 1-benzyl-3-pyrrolidinone and Method for Measurement of Optical Purity of Generated (S)-1-benzyl-3-aminopyrrolidine)
Activity to catalyze transamination by acting on optically active (S)-1-phenethylamine and 1-benzyl-3-pyrrolidinone, so as to generate acetophenone and (S)-1-benzyl-3-aminopyrrolidine was examined. Each reagent was added to each cell-free extract obtained in Example 5 so that the final concentrations were as specified in the following composition of the substrate solution. After 2 hours of reaction at 30° C., the reaction solution was analyzed by HPLC under the following conditions.
as §2
as §3, with “Chromatography” for “Chromatography Quantitative”, “Purity> […]” for “Purity>”

[6] = amino group receptor 14 mM, (S)-1-phenethylamine 14 mM, pH 7.0, 30° C., 60 minutes, 2-ketoglutaric acid = 100

Molecule: C[C@H](N)c1ccccc1 [(S)-α-phenethylamine]
- Relative activity (TAT [1]): 100%

Molecule: CC(C)=O [Acetone]
- Relative activity (TAT [2]; […], 2-ketoglutaric acid = 100): 0%

Molecule: O=Cc1ccccc1 [Benzaldehyde]
- Relative activity (TAT [2]; […], 2-ketoglutaric acid = 100): 70%

Molecule: O=C(Cc1ccccc1)c1ccccc1 [Benzyl phenyl ketone]
- Relative activity (TAT [2]; [6]): 0%

Molecule: NCc1ccccc1 [Benzylamine]
- activity of TAT for amino group donor (in words) (TAT [3]): exhibited activity
- Relative activity (TAT [3]): 100%

Molecule: CCCC=O [Butylaldehyde]
- Relative activity (TAT [2]; [6]): 6%

Molecule: CCOC(=O)CC(C)=O [Ethyl acetoacetate]
- Relative activity (TAT [2]; […], 2-ketoglutaric acid = 100): 2%

Molecule: O=CC(=O)O [Glyoxalic acid]
- activity of the polypeptide for amino group receptor (in words) (TAT [2]): exhibited activity
- Relative activity (TAT [2]; […], 2-ketoglutaric acid = 100): 40%

Molecule: C[C@H](N)C(=O)O [L-alanine]
- Relative activity (TAT [4]): 100%

Molecule: N[C@@H](CCC(=O)O)C(=O)O [L-glutamic acid]
- activity of TAT for amino group donor compared with L-alanine (in words) (TAT [4]): higher activity
- Relative activity (TAT [4]): 1650%

Molecule: Cl.NCCCC[C@H](N)C(=O)O [L-lysine·HCl]
- activity of the polypeptide for amino group donor (in words) (TAT [1]): did not exhibit activity
- Relative activity (TAT [1]): 0%

Molecule: CCCC(=O)CC(=O)OC [Methyl 3-oxohexanoate]
- Relative activity (TAT [2]; […], 2-ketoglutaric acid = 100): 4%

Molecule: CCC(=O)CC(=O)OC [Methyl 3-oxovalerate]
- Relative activity (TAT [2]; […], 2-ketoglutaric acid = 100): 4%

Molecule: O=C(O)CC(=O)C(=O)O [Oxalacetic acid]
- Relative activity (TAT [2]; […], 2-ketoglutaric acid = 100): 4%

Molecule: O=C(O)C(=O)Cc1ccccc1 [Phenylpyruvic acid]
- Relative activity (TAT [2]; […], 2-ketoglutaric acid = 100): 8%

Molecule: NCCCCN [Putrescine·2HCl]
- activity of the polypeptide for amino group donor (in words) (TAT [1]): did not exhibit activity
- Relative activity (TAT [1]): 0%

Molecule: CC(=O)C(=O)O [Pyruvic acid]
- activity of the polypeptide for amino group receptor (in words) (TAT [2]): exhibited activity
- Relative activity (TAT [2]; […], 2-ketoglutaric acid = 100): 10%

Molecule: O=C1CN2CCC1CC2 [Quinuclidinone]
- Relative activity (TAT [2]; pH 7): 0%

Molecule: CCCCN [n-butylamine]
- activity of TAT for amino group donor (in words) (TAT [3]): exhibited activity
- Relative activity (TAT [3]): 4%

Molecule: N#CCC(=O)c1ccccc1 [α-cyanoacetophenone]
- Relative activity (TAT [2]; […], 2-ketoglutaric acid = 100): 0%

Molecule: NCCC(=O)O [β-alanine]
- activity of the polypeptide for amino group donor (in words) (TAT [1]): did not exhibit activity
- Relative activity (TAT [1]): 0%

B1: TAT: polypeptide having transamination activity from Arthrobacter sp. KNK04-25; amino acid sequence SEQ ID NO: 1 (protein, listed as Arthrobacter sp.)
chain: MSAITLESSLATFTRRFDVSAKLTELGKEVVPGGYSRNSFNFGPHAIYVESGDGAYISTVEGHRLLDLNNNFTVNVLGHNHPSVQRTLRGSIETGVSFGNPVALETELAQLLVERIPSIERVQFSCSASESCMSAVRVARAFTGRTKIAKFEGGYHGFTDPLQVSWHPDHDGDCGPDDAPKAIPDSGGIPAEDVANVVVLTQNDGEGTERILRAHASEIACVIVELESASGGLVTLEQDYVESLRELTSELGIVLIFDETVTLRAGYQGMQGDYGVAPDLTVMGKIIGGGFPLGAVGGSAEIMSVLESGLVSISGTHHGHKIALAAGISTMRELTQGAFDRLNGMATRVMEELNDWSSQRGSSFAVYGKGISHLAYGFMREPGLSIRTHRDYWRNFDGTGTQICSLELANRGFFPVARGDFSLSLPMSDDDITAFVETTKEIVTGIES
- conversion rate to (S)-1-benzyl-3-aminopyrrolidine [5]: 100%
- optical purity of generated (S)-1-benzyl-3-aminopyrrolidine [5]: 100 % e.e.
